≈ marks a conversion by molar mass, not a printed value. Calls of active or inactive are those of the source. No cut-off for these calls is given here. Peptide text beside a SMILES is read from it.

Assay [1] deals with Mus musculus. Put plainly: Immunomodulatory activity in Kunming mouse infected with vancomycin-resistant Staphylococcus aureus assessed as increased in MCP-1 level in peritoneal lavage at 10 mg/kg, ip administered 4 hrs after infection by ELISA. Format: functional, organism-based. Background: An ELISA detects its analyte on a solid surface through an enzyme-linked reagent.
Assay [2] has as its system Candida albicans. Kind of assay: Antimicrobial activity against Candida albicans IS 08030102 incubated for 16 to 18 hrs by fluorescence microplate reader analysis. Format: functional. The note with it: time 16-18 hrs.
The test system of assay [3] is Staphylococcus aureus. Kind of assay: In vivo antibacterial activity against vancomycin resistant Staphylococcus aureus infected in kunming mouse assessed as reduction in bacterial load in peritoneal lavage at 10 mg/kg, ip administered 4 hrs after infection. Format: functional, organism-based.

By MIC is commonly meant the lowest concentration that inhibits growth of the organism. On to `CC[C@H](C)[C@H](NC(=O)[C@@H]1CCCN1C(=O)[C@@H](NC(=O)[C@@H](NC(=O)CNC(=O)CNC(=O)[C@@H](NC(=O)[C@H](Cc1ccccc1)NC(=O)[C@@H](NC(=O)[C@H](CCCCN)NC(=O)[C@@H](NC(=O)[C@H](CCCCN)NC(=O)[C@H](CCCCN)NC(=O)[C@H](Cc1ccccc1)NC(=O)[C@@H](NC(=O)[C@H](CCCCN)NC(=O)[C@H](CCCNC(=N)N)NC(=O)[C@H](Cc1ccccc1)NC(=O)CNC(=O)[C@H](CCCCN)NC(=O)[C@H](CCCCN)NC(=O)[C@@H](NC(=O)[C@H](CCCCN)NC(=O)[C@H](CCCNC(=N)N)NC(=O)[C@H](Cc1ccccc1)NC(=O)[C@H](Cc1ccccc1)NC(=O)[C@H](CCCCN)NC(=O)[C@H](CCCCN)NC(=O)[C@H](Cc1ccccc1)NC(=O)[C@H](CCCNC(=N)N)NC(=O)[C@@H](N)CCCCN)[C@@H](C)CC)[C@@H](C)CC)[C@@H](C)O)[C@@H](C)CC)[C@@H](C)CC)[C@@H](C)O)[C@@H](C)CC)C(=O)O` (H-KRFKKFFRKIKKGFRKIFKKTKIFIGGTIPI-OH), for which the outcome in assay [1] and in assay [3] was Active. This compound came in with an MIC in assay [2] of 1.17 µg/mL (≈ 0.308 µM).

For the origin of these results see ChEMBL document CHEMBL4715817, “Python Cathelicidin CATHPb1 Protects against Multidrug-Resistant Staphylococcal Infections by Antimicrobial-Immunomodulatory Duality” (J Med Chem, 2018).
